Patent publication US11739102B2, “Fused pyrimidine compounds as KRAS inhibitors” (Incyte Corporation, priority 2020, dated 2023)

How the values were obtained:
KRAS G12C = KRAS G12C (Homo sapiens, UniProt P01116, G12C); test: GDP-GTP exchange assay (bodipy-GDP/GppNHp, SOS1); format: biochemical; conditions: bodipy-loaded KRAS G12C 2.5 nM, SOS1 150 nM, 2 hours pre-incubation with inhibitor; read-out: G12C_exchange IC50
Protocol: The inhibitor potency of the exemplified compounds was determined in a fluorescence based guanine nucleotide exchange assay, which measures the exchange of bodipy-GDP (fluorescently labeled GDP) for GppNHp (Non-hydrolyzable GTP analog) to generate the active state of KRAS in the presence of SOS1 (guanine nucleotide exchange factor). Inhibitors were serially diluted in DMSO and a volume of 0.1 μL was transferred to the wells of a black low volume 384-well plate. 5 μL/well volume of bodipy-loaded KRAS G12C diluted to 5 nM in assay buffer (25 mM Hepes pH 7.5, 50 mM NaCl, 10 mM MgCl2 and 0.01% Brij-35) was added to the plate and pre-incubated with inhibitor for 2 hours at ambient temperature. Appropriate controls (enzyme with no inhibitor or with a G12C inhibitor (AMG-510)) were included on the plate. The exchange was initiated by the addition of a 5 μL/well volume containing 1 mM GppNHp and 300 nM SOS1 in assay buffer. The 10 μL/well reaction concentration of the bodipy-loaded KRAS G12C, GppNHp, and SOS1 were 2.5 nM, 500 uM, and 150 nM, respectively. The reaction plates were incubated at ambient temperature for 2 hours, a time estimated for complete GDP-GTP exchange in the absence of inhibitor. For the KRAS G12D and G12V mutants, similar guanine nucleotide exchange assays were used with 2.5 nM as final concentration for the bodipy loaded KRAS proteins and with 4 hours and 3 hours incubation after adding GppNHp-SOS1 mixture for G12D and G12V respectively. A cyclic peptide described to selectively bind G12D mutant (Sakamoto et al., BBRC 484.3 (2017), 605-611) or internal compounds with confirmed binding were used as positive controls in the assay plates. Fluorescence intensities were measured on a PheraStar plate reader instrument (BMG Labtech) with excitation at 485 nm and emission at 520 nm.
Either GraphPad prism or XLfit was used to analyze the data. The IC50 values were derived by fitting the data to a four parameter logistic equation producing a sigmoidal dose-response curve with a variable Hill coefficient. Prism equation: Y=Bottom+(Top−Bottom)/(1+10^((Log IC50−X)*Hill slope)); XLfit equation: Y=(A+((B−A)/(1+((X/C)^D)))) where X is the logarithm of inhibitor concentration and Y is the response.

[1] = tested on: MIA PaCa-2 (KRAS G12C) cells; test: Cellular pERK HTRF assay (KRAS_G12C pERK assay); format: cell-based; conditions: Homo sapiens, cells incubated with compound 4 hours, read-out: G12C_pERK IC50
Protocol: MIA PaCa-2 (KRAS G12C; ATCC® CRL-1420), A427 (KRAS G12D; ATCC® HTB53), HPAF-II (KRAS G12D; ATCC® CRL-1997) and NCI-H838 (KRAS WT; ATCC® CRL-5844) cells are purchased from ATCC and maintained in RPMI 1640 media supplemented with 10% FBS (Gibco/Life Technologies). The cells are plated at 5000 cells per well (8 uL) into Greiner 384-well low volume, flat-bottom, tissue culture treated white plates and incubated overnight at 37° C., 5% CO2. The next morning, test compound stock solutions are diluted in media at 3× the final concentration, and 4 uL are added to the cells. The plate is mixed by gentle rotation for 30 seconds (250 rpm) at room temperature. The cells are incubated with the KRAS G12C and G12D compounds for 4 hours or 2 hours respectively at 37° C., 5% CO2.
4 uL of 4× lysis buffer with blocking reagent (1:25) (Cisbio) are added to each well and plates are rotated gently (300 rpm) for 30 minutes at room temperature. 4 uL per well of Cisbio anti Phospho-ERK 1/2 d2 is mixed with anti Phospho-ERK 1/2 Cryptate (1:1) are added to each well, mixed by rotation and incubated overnight in the dark at room temperature. Plates are read on the Pherastar plate reader at 665 nm and 620 nm wavelengths. IC50 determination is performed by fitting the curve of inhibitor percent inhibition versus the log of the inhibitor concentration using the GraphPad Prism 7 software.

KRAS G12C, sequence (P01116 1-188 isoform P01116-2 G12C): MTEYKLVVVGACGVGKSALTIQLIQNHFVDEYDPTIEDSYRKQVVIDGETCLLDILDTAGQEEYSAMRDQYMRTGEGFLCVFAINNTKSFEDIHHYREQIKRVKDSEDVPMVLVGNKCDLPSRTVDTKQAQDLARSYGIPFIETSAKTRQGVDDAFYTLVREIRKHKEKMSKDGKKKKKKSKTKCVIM

Row | SMILES | IC50 (KRAS G12C) | IC50 [1]
1 | C=Cc1ncc2n1CCN(c1nc(OCCCN3CCOCC3)nc3c1CCN(c1cccc4cccc(Cl)c14)C3)C2 [Example 1, 4-(3-((7-(8-Chloronaphthalen-1-yl)-4-(3-vinyl-5,6-dihydroimidazo[1,5-a]pyrazin-7(8H)-yl)-5,6,7,8-tetrahydropyrido[3,4-d]pyrimidin-2-yl)oxy)propyl)morpholine] | 100 to 1000 nM | 1000 to 5000 nM
2 | C=Cc1ncc2n1CCN(c1nc(OCCCN3CCOCC3)nc3c1CCN(c1cccc4ccccc14)C3)C2 [Example 2, 4-(3-((7-(Naphthalen-1-yl)-4-(3-vinyl-5,6-dihydroimidazo[1,5-a]pyrazin-7(8H)-yl)-5,6,7,8-tetrahydropyrido[3,4-d]pyrimidin-2-yl)oxy)propyl)morpholine] | ≤ 100 nM | 1000 to 5000 nM
3 | C=Cc1ncc2n1CCN(c1nc(OC[C@@H]3CCCN3C)nc3c1CCN(c1cccc4ccccc14)C3)C2 [Example 3, (S)-2-((1-Methylpyrrolidin-2-yl)methoxy)-7-(naphthalen-1-yl)-4-(3-vinyl-5,6-dihydroimidazo[1,5-a]pyrazin-7(8H)-yl)-5,6,7,8-tetrahydropyrido[3,4-d]pyrimidine] | ≤ 100 nM | 1000 to 5000 nM
4 | C=Cc1ncc2n1CCN(c1nc(OC[C@@H]3CCCN3C)nc3c1CCN(c1cccc4cccc(Cl)c14)C3)C2 [Example 4, (S)-7-(8-Chloronaphthalen-1-yl)-2-((1-methylpyrrolidin-2-yl)methoxy)-4-(3-vinyl-5,6-dihydroimidazo[1,5-a]pyrazin-7(8H)-yl)-5,6,7,8-tetrahydropyrido[3,4-d]pyrimidine] | 100 to 1000 nM | 1000 to 5000 nM
5 | C=Cc1ncc2n1CCN(c1nc(OCCCN3CCCCC3)nc3c1CCN(c1cccc4cccc(Cl)c14)C3)C2 [Example 5, 7-(8-Chloronaphthalen-1-yl)-2-(3-(piperidin-1-yl)propoxy)-4-(3-vinyl-5,6-dihydroimidazo[1,5-a]pyrazin-7(8H)-yl)-5,6,7,8-tetrahydropyrido[3,4-d]pyrimidine] | 100 to 1000 nM | 1000 to 5000 nM
6 | C=Cc1ncc2n1CCN(c1nc(OCC3CCCN(C)C3)nc3c1CCN(c1cccc4cccc(Cl)c14)C3)C2 (centres unmarked) [Example 6, 7-(8-Chloronaphthalen-1-yl)-2-((1-methylpiperidin-3-yl)methoxy)-4-(3-vinyl-5,6-dihydroimidazo[1,5-a]pyrazin-7(8H)-yl)-5,6,7,8-tetrahydropyrido[3,4-d]pyrimidine] | 100 to 1000 nM | 1000 to 5000 nM
7 | C=Cc1ncc2n1CCN(c1nc(OCC3CCCCN3C)nc3c1CCN(c1cccc4cccc(Cl)c14)C3)C2 (centres unmarked) [Example 7, 7-(8-Chloronaphthalen-1-yl)-2-((1-methylpiperidin-2-yl)methoxy)-4-(3-vinyl-5,6-dihydroimidazo[1,5-a]pyrazin-7(8H)-yl)-5,6,7,8-tetrahydropyrido[3,4-d]pyrimidine] | 100 to 1000 nM | –
8 | C=Cc1ncc2n1CCN(c1nc(OCCC3CCCN3C)nc3c1CCN(c1cccc4cccc(Cl)c14)C3)C2 (centres unmarked) [Example 8, 7-(8-Chloronaphthalen-1-yl)-2-(2-(1-methylpyrrolidin-2-yl)ethoxy)-4-(3-vinyl-5,6-dihydroimidazo[1,5-a]pyrazin-7(8H)-yl)-5,6,7,8-tetrahydropyrido[3,4-d]pyrimidine] | 100 to 1000 nM | –
9 | C=Cc1ncc2n1CCN(c1nc(OC[C@@H]3CCCN3C)nc3c1CCN(c1cc(O)cc4ccccc14)C3)C2 [Example 9, (S)-4-(2-((1-Methylpyrrolidin-2-yl)methoxy)-4-(3-vinyl-5,6-dihydroimidazo[1,5-a]pyrazin-7(8H)-yl)-5,8-dihydropyrido[3,4-d]pyrimidin-7(6H)-yl)naphthalen-2-ol] | 100 to 1000 nM | 1000 to 5000 nM
10 | C=Cc1ncc2n1CCN(c1nc(OC[C@@H]3CCCN3Cc3ccccc3)nc3c1CCN(c1cccc4cccc(Cl)c14)C3)C2 [Example 10, (S)-2-((1-Benzylpyrrolidin-2-yl)methoxy)-7-(8-chloronaphthalen-1-yl)-4-(3-vinyl-5,6-dihydroimidazo[1,5-a]pyrazin-7(8H)-yl)-5,6,7,8-tetrahydropyrido[3,4-d]pyrimidine] | 100 to 1000 nM | –
11 | C=Cc1ncc2n1CCN(c1nc(OC[C@H]3CCCN3C)nc3c1CCN(c1cc(O)cc4ccccc14)C3)C2 [Example 11, (R)-4-(2-((1-Methylpyrrolidin-2-yl)methoxy)-4-(3-vinyl-5,6-dihydroimidazo[1,5-a]pyrazin-7(8H)-yl)-5,8-dihydropyrido[3,4-d]pyrimidin-7(6H)-yl)naphthalen-2-ol] | 100 to 1000 nM | 1000 to 5000 nM
12 | C=Cc1ncc2n1CCN(c1nc(OCC3(C#N)CCCC3)nc3c1CCN(c1cccc4cccc(Cl)c14)C3)C2 [Example 12, 1-(((7-(8-Chloronaphthalen-1-yl)-4-(3-vinyl-5,6-dihydroimidazo[1,5-a]pyrazin-7(8H)-yl)-5,6,7,8-tetrahydropyrido[3,4-d]pyrimidin-2-yl)oxy)methyl)cyclopentane-1-carbonitrile] | 1000 to 5000 nM | –
13 | C=Cc1ncc2n1CCN(c1nc(OCCCN3CCOCC3)nc3c1CCN(c1cc(O)cc4ccccc14)C3)C2 [Example 13, 4-(2-(3-Morpholinopropoxy)-4-(3-vinyl-5,6-dihydroimidazo[1,5-a]pyrazin-7(8H)-yl)-5,8-dihydropyrido[3,4-d]pyrimidin-7(6H)-yl)naphthalen-2-ol] | 1000 to 5000 nM | –
14 | C=Cc1cnc2n1CCN(c1nc(OC[C@@H]3CCCN3C)nc3c1CCN(c1cccc4cccc(Cl)c14)C3)C2 [Example 14, (S)-7-(8-Chloronaphthalen-1-yl)-2-((1-methylpyrrolidin-2-yl)methoxy)-4-(3-vinyl-5,6-dihydroimidazo[1,2-a]pyrazin-7(8H)-yl)-5,6,7,8-tetrahydropyrido[3,4-d]pyrimidine] | 1000 to 5000 nM | –
15 | C=Cc1cnc2n1CCN(c1nc(OCCCN3CCOCC3)nc3c1CCN(c1cccc4cccc(Cl)c14)C3)C2 [Example 15, 4-(3-((7-(8-Chloronaphthalen-1-yl)-4-(3-vinyl-5,6-dihydroimidazo[1,2-a]pyrazin-7(8H)-yl)-5,6,7,8-tetrahydropyrido[3,4-d]pyrimidin-2-yl)oxy)propyl)morpholine] | 1000 to 5000 nM | –
